Reference: ChEMBL document CHEMBL1150069, “Ethnobotanical drug discovery based on medicine men's trials in the African savanna: screening of east African plants for antimicrobial activity II” (1993)
Converted amounts (≈) assume the structure as drawn.

Key:
Escherichia coli = assay: Antimicrobial activity against Escherichia coli IFO 3545 after 2 days by twofold serial broth dilution method; type: functional; conditions: IFO 3545, 48 h
Cyberlindnera jadinii = assay: Antimicrobial activity against Candida utilis ATCC 42402 after 2 days by twofold serial broth dilution method; type: functional; conditions: Williopsis jadinii, ATCC 42402, 48 h
Saccharomyces cerevisiae = assay: Antimicrobial activity against Saccharomyces cerevisiae IFO 0203 after 2 days by twofold serial broth dilution method; type: functional; conditions: IFO 0203, 48 h
Bacillus subtilis = assay: Antimicrobial activity against Bacillus subtilis ATCC 6633 after 2 days by twofold serial broth dilution method; type: functional; conditions: ATCC 6633, 48 h
Mucor mucedo = assay: Antimicrobial activity against Mucor mucedo IFO 7684 after 2 days by twofold serial broth dilution method; type: functional; conditions: IFO 7684, 48 h
Penicillium crustosum = assay: Antimicrobial activity against Penicillium crustosum Thom after 2 days by twofold serial broth dilution method; type: functional; conditions: 48 h
Pseudomonas aeruginosa = assay: Antimicrobial activity against Pseudomonas aeruginosa IAM 1007 after 2 days by twofold serial broth dilution method; type: functional; conditions: IAM 1007, 48 h
Staphylococcus aureus = assay: Antimicrobial activity against Staphylococcus aureus NCTC 8530 after 2 days by twofold serial broth dilution method; type: functional; conditions: NCTC 8530, 48 h
Micrococcus luteus = assay: Antimicrobial activity against Micrococcus luteus IFO 3333 after 2 days by twofold serial broth dilution method; type: functional; conditions: IFO 3333, 48 h
Proteus vulgaris = assay: Antimicrobial activity against Proteus vulgaris IAM 12003 after 2 days by twofold serial broth dilution method; type: functional; conditions: IAM 12003, 48 h
Sclerotinia = assay: Antimicrobial activity against Sclerotinia libertiana Ss after 2 days by twofold serial broth dilution method; conditions: 48 h
Aspergillus niger = assay: Antimicrobial activity against Aspergillus niger ATCC 6275 after 2 days by twofold serial broth dilution method; type: functional; conditions: ATCC 6275, 48 h
[1] = test system: Rhizopus microsporus var. chinensis; assay: Antimicrobial activity against Rhizopus chinensis IFO 4772 after 2 days by twofold serial broth dilution method; type: functional; conditions: IFO 4772, 48 h
[2] = test system: Schizosaccharomyces pombe; assay: Antimicrobial activity against Schizosaccharomyces pombe IFO 0342 after 2 days by twofold serial broth dilution method; type: functional; conditions: IFO 0342, 48 h
Wickerhamomyces anomalus = assay: Antimicrobial activity against Hansenula anomala IFO 0136 after 2 days by twofold serial broth dilution method; type: functional; conditions: IFO 0136, 48 h

SMILES	MIC (Escherichia coli)	MIC (Cyberlindnera jadinii)	MIC (Saccharomyces cerevisiae)	MIC (Bacillus subtilis)	MIC (Mucor mucedo)	MIC (Penicillium crustosum)	MIC (Pseudomonas aeruginosa)	MIC (Staphylococcus aureus)	MIC (Micrococcus luteus)	MIC (Proteus vulgaris)	MIC (Sclerotinia)	MIC (Aspergillus niger)	MIC [1]	MIC [2]	MIC (Wickerhamomyces anomalus)
CC(C)=CCc1cc([C@@H]2CC(=O)c3ccc(O)cc3O2)ccc1O [ABYSSINONE II]	> 100 µg/mL	100 µg/mL (≈ 308 µM)	100 µg/mL (≈ 308 µM)	50 µg/mL (≈ 154 µM)	50 µg/mL (≈ 154 µM)	> 100 µg/mL	> 100 µg/mL	50 µg/mL (≈ 154 µM)							
CC1(C)CCC[C@@]2(C)[C@H]1[C@@H](O)C=C(C=O)[C@]2(O)C=O [MUKAADIAL]	> 100 µg/mL	> 100 µg/mL	> 100 µg/mL	> 100 µg/mL	> 100 µg/mL	> 100 µg/mL	> 100 µg/mL	> 100 µg/mL	> 100 µg/mL	> 100 µg/mL	100 µg/mL (≈ 375 µM)	> 100 µg/mL	> 100 µg/mL	> 100 µg/mL	> 100 µg/mL
COc1ccc2c(c1CC=C(C)C)O[C@H]1c3ccc(O)cc3OC[C@@]21O [ERYTHRABYSSIN I]	> 100 µg/mL	50 µg/mL (≈ 141 µM)	50 µg/mL (≈ 141 µM)	6.25 µg/mL (≈ 17.6 µM)	25 µg/mL (≈ 70.5 µM)	> 100 µg/mL	> 100 µg/mL	12.5 µg/mL (≈ 35.3 µM)							
CC(C)=CCc1cc([C@@H]2CC(=O)c3ccc(O)cc3O2)cc(CC=C(C)C)c1O [ABYSSINONE IV]	> 100 µg/mL	> 100 µg/mL	> 100 µg/mL	12.5 µg/mL (≈ 31.8 µM)	> 100 µg/mL	> 100 µg/mL	> 100 µg/mL	25 µg/mL (≈ 63.7 µM)							
CC1(C)CCC[C@@]2(C)[C@H]1CC=C(C=O)[C@]2(O)C=O [WARBURGANAL]	> 100 µg/mL	3.13 µg/mL (≈ 12.5 µM)	3.13 µg/mL (≈ 12.5 µM)	> 100 µg/mL	25 µg/mL (≈ 99.9 µM)	50 µg/mL (≈ 200 µM)	> 100 µg/mL	> 100 µg/mL	> 100 µg/mL	> 100 µg/mL	3.13 µg/mL (≈ 12.5 µM)	50 µg/mL (≈ 200 µM)	100 µg/mL (≈ 399 µM)	12.5 µg/mL (≈ 49.9 µM)	12.5 µg/mL (≈ 49.9 µM)
CC1(C)C=Cc2c(ccc3c2O[C@H]2c4ccc(O)cc4OC[C@@H]32)O1 [PHASEOLIN]	> 100 µg/mL	50 µg/mL (≈ 155 µM)	25 µg/mL (≈ 77.6 µM)	6.25 µg/mL (≈ 19.4 µM)	12.5 µg/mL (≈ 38.8 µM)	> 100 µg/mL	> 100 µg/mL	12.5 µg/mL (≈ 38.8 µM)							
C=C1[C@@H](C)CC[C@@]2(C)[C@H]1CC=C(C=O)[C@]2(O)C=O	> 100 µg/mL	3.13 µg/mL (≈ 12.6 µM)	1.56 µg/mL (≈ 6.28 µM)	> 100 µg/mL	25 µg/mL (≈ 101 µM)	50 µg/mL (≈ 201 µM)	> 100 µg/mL	> 100 µg/mL	> 100 µg/mL	> 100 µg/mL	3.13 µg/mL (≈ 12.6 µM)	50 µg/mL (≈ 201 µM)	100 µg/mL (≈ 403 µM)	25 µg/mL (≈ 101 µM)	25 µg/mL (≈ 101 µM)
CC(C)=CCc1cc(C2CC(=O)c3c(O)cc(O)cc3O2)cc(CC=C(C)C)c1O (stereo not drawn) [PHASEOLLIN]	> 100 µg/mL	100 µg/mL (≈ 245 µM)	100 µg/mL (≈ 245 µM)	25 µg/mL (≈ 61.2 µM)	50 µg/mL (≈ 122 µM)	> 100 µg/mL	> 100 µg/mL	25 µg/mL (≈ 61.2 µM)							
CC(C)=CCc1cc(/C=C/C(=O)c2ccc(O)cc2O)cc(CC=C(C)C)c1O [ABYSSINONE VI]	> 100 µg/mL	> 100 µg/mL	> 100 µg/mL	> 100 µg/mL	> 100 µg/mL	> 100 µg/mL	> 100 µg/mL	> 100 µg/mL							
CC1(C)CCC[C@]2(C)[C@@H](C=O)C(C=O)=CC[C@@H]12 [POLYGODIAL]	> 100 µg/mL	1.56 µg/mL (≈ 6.66 µM)	0.78 µg/mL (≈ 3.33 µM)	> 100 µg/mL	6.25 µg/mL (≈ 26.7 µM)	25 µg/mL (≈ 107 µM)	> 100 µg/mL	> 100 µg/mL	> 100 µg/mL	> 100 µg/mL	1.56 µg/mL (≈ 6.66 µM)	25 µg/mL (≈ 107 µM)	12.5 µg/mL (≈ 53.3 µM)	6.25 µg/mL (≈ 26.7 µM)	1.56 µg/mL (≈ 6.66 µM)
CC1(C)CCC[C@]2(C)[C@H](C=O)C(C=O)=CC[C@@H]12 [EPIPOLYGODIAL]	> 100 µg/mL	> 100 µg/mL	> 100 µg/mL	> 100 µg/mL	> 100 µg/mL	> 100 µg/mL	> 100 µg/mL	> 100 µg/mL	> 100 µg/mL	> 100 µg/mL	> 100 µg/mL	> 100 µg/mL	> 100 µg/mL	> 100 µg/mL	> 100 µg/mL
CC(=O)O[C@@H]1C=C(C=O)[C@](O)(C=O)[C@@]2(C)CCCC(C)(C)[C@H]12 [CINNAMODIAL]	> 100 µg/mL	> 100 µg/mL	> 100 µg/mL	> 100 µg/mL	> 100 µg/mL	> 100 µg/mL	> 100 µg/mL	> 100 µg/mL	> 100 µg/mL	> 100 µg/mL	> 100 µg/mL	> 100 µg/mL	> 100 µg/mL		
CC1(C)C=Cc2cc([C@@H]3CC(=O)c4ccc(O)cc4O3)ccc2O1 [ABYSSINONE I]	> 100 µg/mL	> 100 µg/mL	> 100 µg/mL	> 100 µg/mL	> 100 µg/mL	> 100 µg/mL	> 100 µg/mL	> 100 µg/mL							
CC(C)=CCc1c(O)ccc2c1O[C@H]1c3ccc(O)cc3OC[C@@H]21 [PHASEOLLIDIN]	> 100 µg/mL	> 100 µg/mL	> 100 µg/mL	25 µg/mL (≈ 77.1 µM)	100 µg/mL (≈ 308 µM)	> 100 µg/mL	> 100 µg/mL	50 µg/mL (≈ 154 µM)							
CC(C)=CCc1cc([C@@H]2CC(=O)c3c(O)cc(O)cc3O2)cc(CC=C(C)C)c1O [ABYSSINONE V]	> 100 µg/mL	> 100 µg/mL	> 100 µg/mL	25 µg/mL (≈ 61.2 µM)	> 100 µg/mL	> 100 µg/mL	> 100 µg/mL	50 µg/mL (≈ 122 µM)							
CC(C)=CCc1cc2c(cc1O)OC[C@H]1c3ccc(O)c(CC=C(C)C)c3O[C@@H]21 [ERYBRAEDIN C]	> 100 µg/mL	> 100 µg/mL	> 100 µg/mL	3.13 µg/mL (≈ 7.97 µM)	> 100 µg/mL	> 100 µg/mL	> 100 µg/mL	3.13 µg/mL (≈ 7.97 µM)							
